Measurements published in patent US8829014B2, “Thiazole and thiophene analogues, and their use in treating autoimmune diseases and cancers” (Board of Supervisors of Louisiana State University and …, priority 2006, dated 2014).

These compounds were tested on carageenan-induced edema (assay: Carrageenan-induced rat paw edema test (anti-inflammatory activity)). Conditions: Rattus norvegicus, po, 3 h, carrageenan-induced rat paw edema; defined in Example 397; read-out: % Protection.
Assay type: in vivo, Sprague-Dawley rats
Parameters: % Protection: concentration or dose not given beside the values
Experimental: Sprague-Dawley rats, male and female, 150-250 g will be used in an edema test. Rats will be deprived of food but not water for 18 hours prior to the experiment. The test compounds will be administered with a blunt-tipped needle orally, 50 mg/kg, as a suspension in 0.1% sodium CMC (carboxymethylcellulose) vehicle. Alternatively, the test compounds will be injected intravenously, subcutaneously, or intraperitoneally. One hour later, 0.1 ml of a 1% carrageenan solution in saline will be injected in the sub-plantar region of the right hind paw of each rat. […] The reading will be repeated 3 hours later. The displacement readings give a measure of carageenan-induced edema. Any reduction in carageenan-induced edema with a test compound, as compared to saline control, is a measure of the anti-inflammatory activity of the test compound. The percentage protection at 50-mg/kg doses was calculated according to the following formula: % Protection=[(Control−Test)/Control]×100%.
Following treatment, the media from the VSMC and HUVEC incubations were removed, and the amount of lactate dehydrogenase (LDH) released into the medium was determined with a commercial kit and expressed as a % increase over vehicle-treated cells. HPT toxicity was determined by the ethidium homodimer (EthHD) uptake assay. […] The lead compounds were also tested in two pairs of cell lines from the skin or prostate, one tumorigenic and one non-tumorigenic, to test for differing toxicity or heightened sensitivity in the tumorigenic lines. The cells were treated for 48 h with vehicle (0.1% DMSO) or 10 μM of each drug candidate, and the viability of the cells was determined by the MTT assay, expressed as a % decrease in viability compared to vehicle-treated cells. The in vivo inflammation model measured the % inhibition of rat paw edema induced by carageenan injection.

Structure (SMILES)	inhibition in vivo at 50 mg/kg
Cc1ccccc1-n1c(-c2sc(Nc3ccc(Cl)cc3)nc2C)nc2ccccc2c1=O [Example 170, 2-[2-(4-Chlorophenylamino)-4-methyl-thiazol-5-yl]-3-o-tolyl-3H-quinazolin-4-one]	45%
Cc1ccccc1-n1c(-c2sc(Nc3ccc(Cl)cc3)nc2-c2ccccc2)nc2ccccc2c1=O [Example 178, 2-[2-(4-Chloro-phenylamino)-4-phenyl-thiazol-5-yl]-3-o-tolyl-3H-quinazolin-4-one]	51%
CCOC(=O)Nc1nc(C)c(-c2nc3ccccc3c(=O)n2-c2ccc(C)cc2)s1 [Example 190, (4-Methyl-5-(4-oxo-3-p-tolyl-3,4-dihydro-quinazolin-2-yl)-thiazol-2-yl)-carbamic acid ethyl ester]	24%
COc1ccccc1-n1c(-c2sc(Nc3ccc(Cl)cc3)nc2C)nc2ccccc2c1=O [Example 203, 2-[2-(4-Chlorophenylamino)-4-methyl-thiazol-5-yl]-3-(2-methoxyphenyl)-3H-quinazoline-4-one]	27%
COc1ccccc1-n1c(-c2sc(Nc3ccc(Cl)cc3)nc2-c2ccccc2)nc2ccccc2c1=O [Example 208, 2-[2-(4-Chloro-phenylamino)-4-phenyl-thiazol-5-yl]-3-(2-methoxyphenyl)-3H-quinazolin-4-one]	31%
Cc1ccc(Nc2nc(C)c(-c3nc4ccccc4c(=O)n3-c3ccc(Cl)cc3)s2)cc1 [Example 247, 2-[2-(4-Methylphenylamino)-4-methyl-thiazol-5-yl]-3-(4-chloro-phenyl)-3H-quinazolin-4-one]	71.9%
CCOC(=O)Nc1nc(C)c(-c2nc3ccccc3c(=O)n2-c2ccc(C(C)=O)cc2)s1 [Example 259, (4-Methyl-5-(4-oxo-3-(4-acetyl-phenyl)-3,4-dihydro-quinazolin-2-yl)-thiazol-2-yl)-carbamic acid ethyl ester]	69.7%

Same assay, conditions: Rattus norvegicus, po, 3 h, rat paw edema, 50 mg/kg, reading 3 hours after carrageenan; [(Control−Test)/Control]×100%; read-out: % Protection P

Structure (SMILES)	inhibition in vivo at 50 mg/kg
O=C(c1ccccc1)c1cc(-c2ccncc2)c(N2CCOCC2)s1 [Example 102, (5-Morpholin-4-yl-4-pyridin-4-yl-thiophene-2-yl)-phenyl-methanone]	52%
COc1ccc(C(=O)c2cc(-c3ccncc3)c(N3CCOCC3)s2)cc1 [Example 104, (4-Methoxy-phenyl)-(5-morpholin-4-yl-4-pyridin-4-yl-thiophen-2-yl)-methanone]	43.5%
O=C(c1ccc(Cl)cc1)c1cc(-c2ccncc2)c(N2CCOCC2)s1 [Example 105, (4-Chloro-phenyl)-(5-morpholin-4-yl-4-pyridin-4-yl-thiophen-2-yl)-methanone]	47.2%
O=C(c1cc(-c2ccncc2)c(N2CCOCC2)s1)c1ccc(Cl)cc1Cl [Example 106, (2,4-Dichloro-phenyl)-(5-morpholin-4-yl-4-pyridin-4-yl-thiophen-2-yl)-methanone]	-75.2%
CC(=O)Nc1ccc(C(=O)c2cc(-c3ccncc3)c(N3CCOCC3)s2)cc1 [Example 109, N-[4-(5-Morpholin-4-yl-4-pyridin-4-yl-thiophen-2-carbonyl)-phenyl]-acetamide]	-75.2%
O=C(c1cccnc1)c1cc(-c2ccncc2)c(N2CCOCC2)s1 [Example 110, (5-Morpholin-4-yl-4-pyridin-4-yl-thiophen-2-yl)-pyridin-3-yl-methanone]	-6.93%
O=C(c1ccncc1)c1cc(-c2ccncc2)c(N2CCOCC2)s1 [Example 111, (5-Morpholin-4-yl-4-pyridin-4-yl-thiophen-2-yl)-pyridin-4-yl-methanone]	59.1%
CS(=O)(=O)c1ccc(-c2cc(C(=O)c3cc(-c4ccc(S(C)(=O)=O)cc4)c(N4CCOCC4)s3)sc2N2CCOCC2)cc1 [Example 112, Bis-[4-(4-methansulfonyl-phenyl)-5-morpholin-4-yl-thiophen-2-yl]-methanone]	55.6%
CC(=O)Nc1ccc(-c2cc(C(=O)c3cc(-c4ccc(NC(C)=O)cc4)c(N4CCOCC4)s3)sc2N2CCOCC2)cc1 [Example 113, N-{4-{5-[4-(4-acetylamino-phenyl)-5-morpholin-4-yl-thiophene-2-carbonyl]-2-morpholin-4-yl-thiophene-3-yl}-phenyl)-acetamide]	45.5%
O=C(c1cc(-c2ccc(Cl)cc2)c(N2CCOCC2)s1)c1cc(-c2ccc(Cl)cc2)c(N2CCOCC2)s1 [Example 114, Bis-[4-(4-chloro-phenyl)-5-morpholin-4-yl-thiophen-2-yl]-methanone]	56.6%
COC(=O)Nc1nc(C)c(C(=O)c2sc(NC(=O)OC)nc2C)s1 [Example 123, Dimethyl[carbonyl-bis(4-methyl-1,3-thiazole-5,2-diyl)]biscarbamate]	23.9%
O=C(c1sc(Nc2ccc(Cl)cc2)nc1-c1ccccc1)c1sc(Nc2ccc(Cl)cc2)nc1-c1ccccc1 [Example 127, Bis-[2-(4-Chloro-phenylamino)-4-phenyl-thiazole-5-yl]-methanone]	43.5%
O=C(Nc1nc(-c2ccccc2)c(C(=O)c2sc(NC(=O)c3ccco3)nc2-c2ccccc2)s1)c1ccco1 [Example 129, Bis-[2-(2-Furoyl-amino)-4-phenyl-thiazole-5-yl]-methanone]	55%
CCOC(=O)Nc1nc(-c2ccccc2)c(C(=O)c2sc(NC(=O)OCC)nc2-c2ccccc2)s1 [Example 131, Diethyl[carbonyl-bis(4-phenyl-1,3-thiazole-5,2-diyl)]biscarbamate]	69.8%
Cc1ccccc1-n1c(-c2cc(-c3ccc(Cl)cc3)c(N3CCOCC3)s2)nc2ccccc2c1=O [Example 279, 2-[4-(4-Chloro-phenyl)-5-morpholin-4-yl-thiophen-2-yl]-3-o-tolyl-3H-quinazolin-4-one]	0%
Cc1ccccc1-n1c(-c2cc(-c3ccc(S(C)(=O)=O)cc3)c(N3CCOCC3)s2)nc2ccccc2c1=O [Example 281, 2-[4-(4-Methanesulfonylphenyl)-5-morpholin-4-yl-thiophen-2-yl]-3-o-tolyl-3H-quinazolin-4-one]	50%
Cc1cccc(-n2c(-c3cc(-c4ccc(S(C)(=O)=O)cc4)c(N4CCOCC4)s3)nc3ccccc3c2=O)c1 [Example 287, 2-[4-(4-Methanesulfonyl-phenyl)-5-morpholin-4-yl-thiophen-2-yl]-3-m-tolyl-3H-quinazolin-4-one]	51%
CSc1ccc(-c2cc(-c3nc4ccccc4c(=O)n3-c3cccc(C)c3)sc2N2CCOCC2)cc1 [Example 288, 2-[4-(4-Methylsulfanyl-phenyl)-5-morpholin-4-yl-thiophen-2-yl]-3-m-tolyl-3H-quinazolin-4-one]	31%
Cc1ccc(-n2c(-c3cc(-c4ccccc4)c(N4CCOCC4)s3)nc3ccccc3c2=O)cc1 [Example 290, 2-(5-Morpholin-4-yl-4-phenyl-thiophene-2-yl)-3-p-tolyl-3H-quinazolin-4-one]	48%
Cc1ccc(-n2c(-c3cc(-c4ccc(Cl)cc4)c(N4CCOCC4)s3)nc3ccccc3c2=O)cc1 [Example 291, 2-[4-(4-Chlorophenyl)-5-morpholin-4-yl-thiophen-2-yl]-3-p-tolyl-3H-quinazolin-4-one]	53%
Cc1ccc(-n2c(-c3cc(-c4ccc(S(C)(=O)=O)cc4)c(N4CCOCC4)s3)nc3ccccc3c2=O)cc1 [Example 292, 2-[4-(4-Methanesulfonyl-phenyl)-5-morpholin-4-yl-thiophen-2-yl]-3-p-tolyl-3H-quinazolin-4-one]	31%
COc1ccccc1-n1c(-c2cc(-c3ccccc3)c(N3CCOCC3)s2)nc2ccccc2c1=O [Example 294, 3-(2-Methoxy-phenyl)-2-(5-morpholin-4-yl-4-phenyl-thiophen-2-yl)-3H-quinazolin-4-one]	34%

Same assay, conditions: carrageenan-induced rat paw edema; defined in Example 397

Structure (SMILES)	% Protection
O=c1c2ccccc2nc(-c2sc(Nc3ccc(Cl)cc3)nc2-c2ccccc2)n1-c1ccccc1Cl [Example 238, 2-[2-(4-Chlorophenylamino)-4-phenyl-thiazol-5-yl]-3-(2-Chloro-phenyl)1-3H-quinazolin-4-one]	61%

Same assay, conditions: rat paw edema, 50 mg/kg, reading 3 hours after carrageenan; [(Control−Test)/Control]×100%

Structure (SMILES)	% Protection P
Cc1ccccc1-n1c(-c2cc(-c3ccccc3)c(N3CCOCC3)s2)nc2ccccc2c1=O [Example 278, 2-(5-Morpholin-4-yl-4-phenyl-thiophene-2-yl)-3-0-tolyl-3H-quinazolin-4-one]	37%

Same assay, conditions: rat paw edema, 50 mg/kg, reading 3 hours after carrageenan; [(Control−Test)/Control]×100%; 50 mg/kg

Structure (SMILES)	% Protection P
Cc1nc(NC(=O)c2ccccc2)sc1C(=O)c1sc(NC(=O)c2ccccc2)nc1C [Example 121, Bis-[2-(2-Benzoyl-amino)-4-methyl-thiazole-5-yl]-methanone]	62%
Cc1nc(NC(=O)c2ccccc2)sc1C(=O)c1sc(NC(=O)c2ccccc2)nc1C [Example 128, Bis-[2-(2-Benzoyl-amino)-4-methyl-thiazole-5-yl]-methanone]	34%
